SMILES strings stand for the structures.

The results in this text go back to patent US7915245B2, “Methods and compositions of trail-death receptor agonists/activators” (The Board of Regents of the University of Texas System, priority 2007, dated 2011).

Test [1] relates to prostate cancer LNCaP cells xenografted. The experiment in a line: LNCaP xenograft tumor growth. It counts as in vivo, Balb c nude mice. The settings on record: 40 mg/kg iv, 5 days per week. As to the method:
FIG. 28. […] LNCaP cells (2×10^6 cells as a 50% suspension in Matrigel, Becton Dickinson, Bedford, Mass., in a final volume of 0.1 ml) were injected subcutaneously in the right flank of Balb c nude mice. After tumor formation (about 100 mm^3), nude mice were treated (iv) with vehicle control (0.1 ml normal saline), and DRA9S (40 mg/kg, 0.1 ml volume) everyday 5 days per week throughout the duration of the experiment. Tumor volume was calculated using the equation: (volume=length×width×depth×0.5236 mm^3). Data represent mean±S.E.
LNCaP cells (2×10^6 cells as a 50% suspension in Matrigel, Becton Dickinson, Bedford, Mass., in a final volume of 0.1 ml) were injected subcutaneously in the right flank of Balb c nude mice. After tumor formation (about 100 mm^3), nude mice were treated (iv) with vehicle control (0.1 ml normal saline), and DRA9S (40 mg/kg, 0.1 ml volume) everyday 5 days per week throughout the duration of the experiment. Tumor volume was calculated using the equation: (volume=length×width×depth×0.5236 mm^3). See, for example, FIG. 28. Data represent mean ±S.E.

Test [2] concerns breast cancer MDA-MB-468 cells xenografted. The test is described as follows: MDA-MB-468 xenograft tumor growth. The class given is in vivo, Balb c nude mice. The note with it: 40 mg/kg iv, 5 days per week. As to the method: FIG. 30. […] MDA-MB-468 cells (2×10^6 cells, in a final volume of 0.1 ml PBS) were injected subcutaneously in the right flank of Balb c nude mice. After tumor formation (about 100 mm^3), nude mice were treated (iv) with vehicle control (0.1 ml normal saline), and DRA9S (40 mg/kg, 0.1 ml volume) everyday 5 days per week throughout the duration of the experiment. Tumor volume was calculated using the equation: (volume=length×width×depth×0.5236 mm^3). Data represent mean±S.E.
MDA-MB-468 cells (2×10^6 cells, in a final volume of 0.1 ml PBS) were injected subcutaneously in the right flank of Balb c nude mice. After tumor formation (about 100 mm^3), nude mice were treated (iv) with vehicle control (0.1 ml normal saline), and DRA9S (40 mg/kg, 0.1 ml volume) everyday 5 days per week throughout the duration of the experiment. Tumor volume was calculated using the equation: (volume=length×width×depth×0.5236 mm^3). See, for example, FIG. 30. Data represent mean ±S.E.

Test [3] concerns pancreatic cancer AsPC-1 cells xenografted. The test is described as follows: AsPC-1 xenograft tumor growth. It counts as in vivo, Balb c nude mice. The settings on record: 20, 40 mg/kg iv, 5 days per week. How it is done:
FIG. 27. […] AsPC-1 cells (2×10^6 cells as a 50% suspension in Matrigel, Becton Dickinson, Bedford, Mass., in a final volume of 0.1 ml) were injected subcutaneously in the right flank of Balb c nude mice. After tumor formation (about 100 mm^3), nude mice (10 per group) were treated (iv) with vehicle control (0.1 ml normal saline), DRA11 (20 mg/kg, 0.1 ml volume), and DRA11 (40 mg/kg, 0.1 ml volume) everyday 5 days per week throughout the duration of the experiment. Tumor volume was calculated using the equation: (volume=length×width×depth×0.5236 mm^3).
FIG. 31. […] MDA-MB-468 cells (2×10^6 cells, in a final volume of 0.1 ml PBS) were injected subcutaneously in the right flank of Balb c nude mice. […] Tumor volume was calculated using the equation: (volume=length×width×depth×0.5236 mm^3). […]
AsPC-1 cells (2×10^6 cells as a 50% suspension in Matrigel, Becton Dickinson, Bedford, Mass., in a final volume of 0.1 ml) were injected subcutaneously in the right flank of Balb c nude mice. […] Tumor volume was calculated using the equation: (volume=length×width×depth×0.5236 mm^3). […]
MDA-MB-468 cells (2×10^6 cells, in a final volume of 0.1 ml PBS) were injected subcutaneously in the right flank of Balb c nude mice. […] Tumor volume was calculated using the equation: (volume=length×width×depth×0.5236 mm^3). […]

Test [4] concerns mesothelioma M33K cell line. The test is described as follows: XTT cell viability, mesothelioma M33K. The class given is cell-based. The settings on record: z-VAD-fmk 25 μM 2 h pretreatment, then DRA 72 h. How it is done: FIG. 53. […] M33K cells were pretreated with either control peptide (10 μM) or pan caspase inhibitor (z-VAD-fink, 25 μM) for 2 h, followed by treatment with various doses of DRA11, DRA9 and DRA9S for 72 h. At the end of incubation, cell viability was measured by XTT assay. Data represent the mean±S.D.
XTT Assay. Cells (1×10^4 cells per well) were seeded in 96-well plates (flat bottom), and treated with death receptor agonists/activators/small molecules in the presence or absence of TNF-related apoptosis inducing ligand (TRAIL). Plates were incubated for various time points at 37° C. and 5% CO2. Before the end of the experiment, 50 μl XTT (sodium 3′[1-(phenylaminocarbonyl)-3,4-tetrazolium]-bis(4-methoxy-6-nitro) benzene sulfonic acid hydrate) labeling mixture (final concentration, 125 μM sodium XTT and 25 μM PMS) per well was added and plates were incubated for a further 4 h at 37° C. and 5% CO2. The spectrophotometric absorbance of the sample was measured using a microtitre plate (ELISA) reader. The wavelength to measure absorbance of the formazan product was 450 nm, and the reference wavelength was 650 nm.
Background: Tetrazolium assays rely on reduction of a dye to a coloured formazan, in cell work by metabolically active cells.

Take `CCOc1cc(Br)c(Br)c(/C=N/c2cccc(C(=O)O)c2C)c1O` [DRA9S]: the “growth of xenografted LNCaP tumors (tumor volume)” value in test [1] is “inhibits growth”. The “growth of xenografted MDA-MB-468 tumors (tumor volume)” value in test [2] is on record as “inhibits growth”. Further, the “growth of xenografted AsPC-1 tumors (tumor volume)” value in test [3] is reported as “inhibits growth”.
In the case of `CCOc1cc(Br)c(Br)c(/C=N/c2cccc(C(=O)O)c2)c1O` [DRA9], the “effect of pan caspase inhibitor (z-VAD-fmk) on the inhibitory effect on cell viability” value in test [4] was “blocks the inhibitory effects”.
